Laboratory results taken from ChEMBL document CHEMBL5723582, “Data for DCP probe T-10430” (2024).

Experiments:
Conditions in all cases: Compound concentration 1.0 uM
[1] = biological target: D(1B) dopamine receptor (Homo sapiens) (UniProt P21918); assay: RLU of DRD5 at 1.0 µM in the […] PRESTO-Tango GPCRome screen
[2] = biological target: Lysophosphatidic acid receptor 5 (Homo sapiens) (UniProt Q9H1C0); assay: RLU of LPAR5 at 1.0 µM in the […] PRESTO-Tango GPCRome screen
[3] = biological target: 5-hydroxytryptamine receptor 1A (Homo sapiens) (UniProt P08908); assay: RLU of HTR1A at 1.0 µM in the Aequorin PRESTO-Tango GPCRome screen
[4] = biological target: Probable G-protein coupled receptor 85 (Homo sapiens) (UniProt P60893); assay: RLU of GPR85 at 1.0 µM in the […] PRESTO-Tango GPCRome screen
[5] = biological target: Probable G-protein coupled receptor 82 (Homo sapiens) (UniProt Q96P67); assay: RLU of GPR82 at 1.0 µM in the […] PRESTO-Tango GPCRome screen
[6] = biological target: Metabotropic glutamate receptor 8 (Homo sapiens) (UniProt O00222); assay: RLU of GRM8 at 1.0 µM in the Aequorin PRESTO-Tango GPCRome screen
[7] = biological target: 5-hydroxytryptamine receptor 5A (Homo sapiens) (UniProt P47898); assay: RLU of HTR5 at 1.0 µM in the […] PRESTO-Tango GPCRome screen
[8] = biological target: G-protein coupled receptor 12 (Homo sapiens) (UniProt P47775); assay: RLU of GPR12 at 1.0 µM in the […] PRESTO-Tango GPCRome screen
[9] = biological target: Probable G-protein coupled receptor 101 (Homo sapiens) (UniProt Q96P66); assay: RLU of GPR101 at 1.0 µM in the […] PRESTO-Tango GPCRome screen
[10] = biological target: 5-hydroxytryptamine receptor 7 (Homo sapiens) (UniProt P34969); assay: RLU of HTR7 at 1.0 µM in the […] PRESTO-Tango GPCRome screen
[11] = biological target: Relaxin receptor 1 (Homo sapiens) (UniProt Q9HBX9); assay: RLU of RXFP1 at 1.0 µM in the […] PRESTO-Tango GPCRome screen
[12] = biological target: Adhesion G protein-coupled receptor L4 (Homo sapiens) (UniProt Q9HBW9); assay: RLU of ELTD1 at 1.0 µM in the […] PRESTO-Tango GPCRome screen
[13] = biological target: 5-hydroxytryptamine receptor 1F (Homo sapiens) (UniProt P30939); assay: RLU of HTR1F at 1.0 µM in the […] PRESTO-Tango GPCRome screen
[14] = biological target: G-protein coupled bile acid receptor 1 (Homo sapiens) (UniProt Q8TDU6); assay: RLU of GPBA at 1.0 µM in the […] PRESTO-Tango GPCRome screen
[15] = biological target: Trace amine-associated receptor 6 (Homo sapiens) (UniProt Q96RI8); assay: RLU of TAAR6 at 1.0 µM in the […] PRESTO-Tango GPCRome screen
[16] = biological target: Nociceptin receptor (Homo sapiens) (UniProt P41146); assay: RLU of OPRL1 at 1.0 µM in the […] PRESTO-Tango GPCRome screen
[17] = biological target: Metabotropic glutamate receptor 2 (Homo sapiens) (UniProt Q14416); assay: RLU of GRM2 at 1.0 µM in the Aequorin PRESTO-Tango GPCRome screen
[18] = biological target: Beta-1 adrenergic receptor (Homo sapiens) (UniProt P08588); assay: RLU of ADRB1 at 1.0 µM in the […] PRESTO-Tango GPCRome screen
[19] = biological target: 5-hydroxytryptamine receptor 2B (Homo sapiens) (UniProt P41595); assay: RLU of HTR2B at 1.0 µM in the […] PRESTO-Tango GPCRome screen
[20] = biological target: Probable G-protein coupled receptor 152 (Homo sapiens) (UniProt Q8TDT2); assay: RLU of GPR152 at 1.0 µM in the […] PRESTO-Tango GPCRome screen
[21] = biological target: Adhesion G protein-coupled receptor A2 (Homo sapiens) (UniProt Q96PE1); assay: RLU of GPR124 at 1.0 µM in the […] PRESTO-Tango GPCRome screen
[22] = biological target: Mas-related G-protein coupled receptor MRG (Homo sapiens) (UniProt P35410); assay: RLU of MAS1L at 1.0 µM in the […] PRESTO-Tango GPCRome screen
[23] = biological target: Thromboxane A2 receptor (Homo sapiens) (UniProt P21731); assay: RLU of TBXA2R at 1.0 µM in the […] PRESTO-Tango GPCRome screen
[24] = biological target: Free fatty acid receptor 4 (Homo sapiens) (UniProt Q5NUL3); assay: RLU of GPR120 at 1.0 µM in the […] PRESTO-Tango GPCRome screen
[25] = biological target: Type-2 angiotensin II receptor (Homo sapiens) (UniProt P50052); assay: RLU of AGTR2 at 1.0 µM in the […] PRESTO-Tango GPCRome screen
[26] = biological target: C-X-C chemokine receptor type 3 (Homo sapiens) (UniProt P49682); assay: RLU of CXCR3 at 1.0 µM in the […] PRESTO-Tango GPCRome screen
[27] = biological target: Endothelin receptor type B (Homo sapiens) (UniProt P24530); assay: RLU of EDNRB at 1.0 µM in the […] PRESTO-Tango GPCRome screen
[28] = biological target: Melanocortin receptor 3 (Homo sapiens) (UniProt P41968); assay: RLU of MC3R at 1.0 µM in the […] PRESTO-Tango GPCRome screen
Opsin-3 (Homo sapiens) = Opsin-3 (Homo sapiens) (UniProt Q9H1Y3); assay: RLU of OPN3 at 1.0 µM in the […] PRESTO-Tango GPCRome screen
[29] = biological target: C-C chemokine receptor type 10 (Homo sapiens) (UniProt P46092); assay: RLU of CCR10 at 1.0 µM in the […] PRESTO-Tango GPCRome screen
[30] = biological target: 2-oxoglutarate receptor 1 (Homo sapiens) (UniProt Q96P68); assay: RLU of OXGR1 at 1.0 µM in the […] PRESTO-Tango GPCRome screen
[31] = biological target: 5-hydroxytryptamine receptor 2C (Homo sapiens) (UniProt P28335); assay: RLU of HTR2C at 1.0 µM in the […] PRESTO-Tango GPCRome screen
[32] = biological target: Probable G-protein coupled receptor 45 (Homo sapiens) (UniProt Q9Y5Y3); assay: RLU of GPR45 at 1.0 µM in the […] PRESTO-Tango GPCRome screen
[33] = biological target: Adhesion G-protein coupled receptor G6 (Homo sapiens) (UniProt Q86SQ4); assay: RLU of GPR126 at 1.0 µM in the […] PRESTO-Tango GPCRome screen
[34] = biological target: Probable G-protein coupled receptor 142 (Homo sapiens) (UniProt Q7Z601); assay: RLU of GPR142 at 1.0 µM in the […] PRESTO-Tango GPCRome screen
Probable G-protein coupled receptor 142 (Homo sapiens), sequence (Q7Z601 whole entry): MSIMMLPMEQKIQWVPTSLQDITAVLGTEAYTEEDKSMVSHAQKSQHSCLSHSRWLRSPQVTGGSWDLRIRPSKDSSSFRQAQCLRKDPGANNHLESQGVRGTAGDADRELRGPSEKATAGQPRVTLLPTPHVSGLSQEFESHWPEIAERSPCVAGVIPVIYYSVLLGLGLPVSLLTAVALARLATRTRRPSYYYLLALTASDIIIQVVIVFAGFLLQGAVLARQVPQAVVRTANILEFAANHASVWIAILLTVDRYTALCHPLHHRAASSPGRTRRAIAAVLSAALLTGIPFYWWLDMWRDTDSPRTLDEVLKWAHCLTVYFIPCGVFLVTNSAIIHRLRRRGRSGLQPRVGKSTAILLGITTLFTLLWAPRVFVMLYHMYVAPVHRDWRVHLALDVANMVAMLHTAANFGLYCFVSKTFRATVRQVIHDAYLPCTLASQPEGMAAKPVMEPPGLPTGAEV

Lysophosphatidic acid receptor 5 (Homo sapiens), sequence (Q9H1C0 whole entry): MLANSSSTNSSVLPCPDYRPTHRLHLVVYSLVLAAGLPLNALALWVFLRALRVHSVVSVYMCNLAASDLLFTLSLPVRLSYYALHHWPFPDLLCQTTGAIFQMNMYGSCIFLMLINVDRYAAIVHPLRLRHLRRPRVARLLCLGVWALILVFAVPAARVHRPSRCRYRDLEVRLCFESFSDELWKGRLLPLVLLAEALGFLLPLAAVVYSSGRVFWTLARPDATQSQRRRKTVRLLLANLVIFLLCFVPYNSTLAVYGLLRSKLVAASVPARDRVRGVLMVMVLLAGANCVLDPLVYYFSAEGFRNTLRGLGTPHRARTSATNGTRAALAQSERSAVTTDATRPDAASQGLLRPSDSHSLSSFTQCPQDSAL
Trace amine-associated receptor 6 (Homo sapiens), sequence (Q96RI8 whole entry): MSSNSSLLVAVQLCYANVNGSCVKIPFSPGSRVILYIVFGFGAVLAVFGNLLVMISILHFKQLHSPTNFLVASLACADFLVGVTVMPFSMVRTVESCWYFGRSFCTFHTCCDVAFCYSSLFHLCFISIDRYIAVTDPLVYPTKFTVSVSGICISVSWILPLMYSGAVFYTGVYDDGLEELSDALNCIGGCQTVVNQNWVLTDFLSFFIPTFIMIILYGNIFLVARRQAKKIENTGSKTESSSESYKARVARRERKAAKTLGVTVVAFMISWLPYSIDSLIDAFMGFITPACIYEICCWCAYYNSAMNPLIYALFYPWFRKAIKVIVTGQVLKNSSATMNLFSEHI
5-hydroxytryptamine receptor 1A (Homo sapiens), sequence (P08908 whole entry): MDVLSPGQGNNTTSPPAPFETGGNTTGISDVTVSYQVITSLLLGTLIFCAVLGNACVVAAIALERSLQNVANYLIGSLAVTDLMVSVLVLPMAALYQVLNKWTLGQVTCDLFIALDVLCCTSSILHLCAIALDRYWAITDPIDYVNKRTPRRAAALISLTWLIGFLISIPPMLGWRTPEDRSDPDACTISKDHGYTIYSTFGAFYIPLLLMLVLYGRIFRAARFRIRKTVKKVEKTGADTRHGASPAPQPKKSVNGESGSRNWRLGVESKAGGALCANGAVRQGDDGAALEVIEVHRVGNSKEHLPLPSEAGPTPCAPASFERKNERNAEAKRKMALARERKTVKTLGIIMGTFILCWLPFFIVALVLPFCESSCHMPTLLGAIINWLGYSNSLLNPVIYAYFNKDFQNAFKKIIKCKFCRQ
Adhesion G-protein coupled receptor G6 (Homo sapiens), sequence (Q86SQ4 whole entry): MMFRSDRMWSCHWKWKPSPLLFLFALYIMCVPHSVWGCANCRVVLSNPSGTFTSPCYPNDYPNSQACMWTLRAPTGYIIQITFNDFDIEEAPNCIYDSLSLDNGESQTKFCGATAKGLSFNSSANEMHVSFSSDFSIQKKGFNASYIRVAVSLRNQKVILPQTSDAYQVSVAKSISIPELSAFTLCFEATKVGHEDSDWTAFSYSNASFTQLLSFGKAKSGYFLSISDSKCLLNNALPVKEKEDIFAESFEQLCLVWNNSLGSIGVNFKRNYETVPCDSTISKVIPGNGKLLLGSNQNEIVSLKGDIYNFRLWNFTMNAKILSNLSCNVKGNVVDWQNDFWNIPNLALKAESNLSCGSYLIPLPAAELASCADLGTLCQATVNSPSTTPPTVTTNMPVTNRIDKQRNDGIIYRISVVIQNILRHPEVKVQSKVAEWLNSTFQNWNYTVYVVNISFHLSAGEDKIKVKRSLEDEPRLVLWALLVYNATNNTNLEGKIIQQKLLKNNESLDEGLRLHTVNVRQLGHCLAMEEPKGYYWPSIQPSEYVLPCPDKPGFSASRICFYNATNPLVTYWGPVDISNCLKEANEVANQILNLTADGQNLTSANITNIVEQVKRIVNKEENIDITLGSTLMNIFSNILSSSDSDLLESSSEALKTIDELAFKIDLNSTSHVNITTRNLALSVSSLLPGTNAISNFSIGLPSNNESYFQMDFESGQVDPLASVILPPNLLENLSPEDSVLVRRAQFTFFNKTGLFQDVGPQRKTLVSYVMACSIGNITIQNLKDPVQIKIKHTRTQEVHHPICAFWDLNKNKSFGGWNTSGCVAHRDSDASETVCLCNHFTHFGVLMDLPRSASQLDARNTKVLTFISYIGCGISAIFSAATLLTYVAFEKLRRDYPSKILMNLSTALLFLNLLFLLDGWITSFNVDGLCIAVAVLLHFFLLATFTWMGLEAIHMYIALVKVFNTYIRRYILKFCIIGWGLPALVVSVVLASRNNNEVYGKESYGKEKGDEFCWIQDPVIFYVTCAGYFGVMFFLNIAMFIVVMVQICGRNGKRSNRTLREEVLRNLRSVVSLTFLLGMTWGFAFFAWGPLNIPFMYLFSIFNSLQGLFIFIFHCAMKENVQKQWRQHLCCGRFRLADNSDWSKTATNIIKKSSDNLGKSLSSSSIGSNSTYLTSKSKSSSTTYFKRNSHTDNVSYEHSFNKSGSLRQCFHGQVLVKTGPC
Probable G-protein coupled receptor 101 (Homo sapiens), sequence (Q96P66 whole entry): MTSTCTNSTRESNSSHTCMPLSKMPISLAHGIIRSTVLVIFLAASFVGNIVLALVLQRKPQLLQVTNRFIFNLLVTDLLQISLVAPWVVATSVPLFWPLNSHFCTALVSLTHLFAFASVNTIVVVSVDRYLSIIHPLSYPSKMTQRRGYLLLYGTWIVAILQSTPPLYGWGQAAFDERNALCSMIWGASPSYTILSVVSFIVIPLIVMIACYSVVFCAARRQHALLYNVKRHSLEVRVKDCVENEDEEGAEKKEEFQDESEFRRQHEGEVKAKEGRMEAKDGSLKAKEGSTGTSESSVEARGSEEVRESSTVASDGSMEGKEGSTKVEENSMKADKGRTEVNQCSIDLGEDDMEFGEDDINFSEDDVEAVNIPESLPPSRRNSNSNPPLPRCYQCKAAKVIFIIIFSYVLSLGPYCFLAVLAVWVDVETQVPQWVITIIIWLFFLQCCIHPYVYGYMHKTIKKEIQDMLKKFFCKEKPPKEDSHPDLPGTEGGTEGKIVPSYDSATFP
Free fatty acid receptor 4 (Homo sapiens), sequence (Q5NUL3 whole entry): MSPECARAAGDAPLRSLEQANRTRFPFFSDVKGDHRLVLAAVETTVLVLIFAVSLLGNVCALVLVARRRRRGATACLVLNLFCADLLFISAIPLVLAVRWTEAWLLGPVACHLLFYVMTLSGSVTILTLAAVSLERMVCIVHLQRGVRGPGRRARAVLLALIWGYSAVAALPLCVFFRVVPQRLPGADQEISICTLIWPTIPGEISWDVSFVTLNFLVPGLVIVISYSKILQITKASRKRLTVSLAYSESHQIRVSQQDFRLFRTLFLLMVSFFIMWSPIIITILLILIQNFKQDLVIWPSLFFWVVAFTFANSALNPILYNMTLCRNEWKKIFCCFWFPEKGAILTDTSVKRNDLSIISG
Nociceptin receptor (Homo sapiens), sequence (P41146 whole entry): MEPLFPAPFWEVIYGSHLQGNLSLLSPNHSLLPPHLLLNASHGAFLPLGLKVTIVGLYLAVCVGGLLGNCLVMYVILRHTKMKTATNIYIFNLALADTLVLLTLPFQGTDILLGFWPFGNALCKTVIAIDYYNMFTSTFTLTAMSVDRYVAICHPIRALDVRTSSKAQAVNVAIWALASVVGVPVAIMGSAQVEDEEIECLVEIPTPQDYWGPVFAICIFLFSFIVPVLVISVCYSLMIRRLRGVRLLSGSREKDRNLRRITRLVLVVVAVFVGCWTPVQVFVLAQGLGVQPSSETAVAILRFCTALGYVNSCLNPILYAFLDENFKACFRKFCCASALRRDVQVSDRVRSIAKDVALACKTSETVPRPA
G-protein coupled receptor 12 (Homo sapiens), sequence (P47775 whole entry): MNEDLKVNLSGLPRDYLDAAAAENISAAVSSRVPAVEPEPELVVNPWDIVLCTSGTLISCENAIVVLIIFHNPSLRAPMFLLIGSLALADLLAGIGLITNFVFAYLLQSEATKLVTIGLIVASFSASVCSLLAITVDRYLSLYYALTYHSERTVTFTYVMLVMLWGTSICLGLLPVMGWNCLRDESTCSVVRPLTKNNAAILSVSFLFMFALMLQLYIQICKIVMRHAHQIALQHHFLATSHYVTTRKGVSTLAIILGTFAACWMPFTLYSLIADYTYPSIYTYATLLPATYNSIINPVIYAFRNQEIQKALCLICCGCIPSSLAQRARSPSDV
5-hydroxytryptamine receptor 7 (Homo sapiens), sequence (P34969 whole entry): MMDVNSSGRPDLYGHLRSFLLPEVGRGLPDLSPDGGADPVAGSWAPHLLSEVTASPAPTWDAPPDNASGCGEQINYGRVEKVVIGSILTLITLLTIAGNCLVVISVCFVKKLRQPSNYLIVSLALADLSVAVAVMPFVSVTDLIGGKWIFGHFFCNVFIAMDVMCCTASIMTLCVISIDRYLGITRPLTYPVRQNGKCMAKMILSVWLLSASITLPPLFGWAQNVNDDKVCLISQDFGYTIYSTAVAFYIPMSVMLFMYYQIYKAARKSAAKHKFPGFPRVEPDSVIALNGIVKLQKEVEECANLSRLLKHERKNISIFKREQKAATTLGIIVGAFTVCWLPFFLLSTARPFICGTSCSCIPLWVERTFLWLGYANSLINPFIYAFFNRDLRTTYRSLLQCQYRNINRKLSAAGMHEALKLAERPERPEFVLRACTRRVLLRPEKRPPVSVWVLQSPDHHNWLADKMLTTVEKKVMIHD

## CCCCC(=O)N1CC2(C1)CN(c1ccccc1-c1nnn[nH]1)C2
[1]
  RLU: 856
[2]
  RLU: 471
[3]
  RLU: 1530
[4]
  RLU: -4210
[5]
  RLU: -8050
[6]
  RLU: -4060
[7]
  RLU: -1880
[8]
  RLU: 109
[9]
  RLU: -2170
[10]
  RLU: -1000
[11]
  RLU: -1130
[12]
  RLU: 1170
[13]
  RLU: -3470
[14]
  RLU: 275
[15]
  RLU: -394
[16]
  RLU: 2760
[17]
  RLU: -1460
[18]
  RLU: 19400
[19]
  RLU: -1740
[20]
  RLU: -70
[21]
  RLU: -2920
[22]
  RLU: 2610
[23]
  RLU: 233
[24]
  RLU: 1030
[25]
  RLU: 5320
[26]
  RLU: -568
[27]
  RLU: -88.5
[28]
  RLU: 18.8
Opsin-3 (Homo sapiens)
  RLU: 338
[29]
  RLU: 464
[30]
  RLU: -826
[31]
  RLU: 1050
[32]
  RLU: 963
[33]
  RLU: -6500
[34]
  RLU: 2920
